Our source for the AUC, concentration and IC50 values is US4988681A, “Phosphinic acid derivatives” (Banyu Pharmaceutical Co., Ltd., priority 1988, dated 1991).

Where two headings read alike, the source gives them in different places.

Data set [1] can be described thus: Pharmacokinetic evaluation: plasma concentration in rats. The data set is classed as in vivo, Male SD rats. To be noted: plasma, rat; for AUC: trapezoidal rule; for concentration at 0.5 h: 1/2 h; for concentration at 0.25 h: 1/4 h; for concentration at 5 min: 1/12 h. The method, then:
(4) Pharmacokinetic evaluations
Male SD rats ([…]) were divided into groups each consisting of three animals. […] Furthermore, cilastatin was intravenously administered to a 14th group as a control group.
Plasma samples were taken periodically from the carotid artery through a cannula inserted into it at the points of 1/12, 1/4, 1/2, 1, 2, 4, 6, 8 and 24 hours after the administration.
The area under the curve (AUC) of the plasma concentration was determined according to the trapezoidal rule.

The target in data set [2] is T1, porcine kidney dehydropeptidase I (Sus scrofa, UniProt P22412).
T1 construct: Frozen porcine kidney cortex was homogenized; from tissue; host or cells: porcine kidney cortex
T1 sequence (P22412 17-409): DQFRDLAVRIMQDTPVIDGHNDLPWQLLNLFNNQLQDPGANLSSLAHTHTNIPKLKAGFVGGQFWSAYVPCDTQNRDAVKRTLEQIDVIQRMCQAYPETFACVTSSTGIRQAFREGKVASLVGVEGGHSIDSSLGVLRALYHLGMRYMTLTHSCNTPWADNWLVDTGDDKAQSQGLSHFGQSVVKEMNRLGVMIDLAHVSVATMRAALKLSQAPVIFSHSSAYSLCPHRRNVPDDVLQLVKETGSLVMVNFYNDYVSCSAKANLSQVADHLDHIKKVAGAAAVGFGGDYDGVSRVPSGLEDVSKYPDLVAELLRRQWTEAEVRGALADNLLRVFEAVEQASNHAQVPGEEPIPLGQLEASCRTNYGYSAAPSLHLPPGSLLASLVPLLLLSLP
Briefly: Inhibitory activity on porcine kidney dehydropeptidase I (DHP-I). Type of data set: biochemical. The procedure:
(1) Inhibitory activity on porcine kidney dehydropeptidase I
(i) Purification of porcine dehydropeptidase I
Frozen porcine kidney cortex was homogenized. Butanol (1/4 volume) pre-cooled in a dry ice-acetone bath was added to the homogenate, and the mixture was stirred at 4° C. for 43 hours. The mixture was then dialyzed for one day and centrifuged at 3,000 g for 30 minutes. To the resulting supernatant was added ammonium sulfate. A precipitate at the salt concentration range between 50 and 75% was collected to give a crude enzyme preparation which was re-dissolved in a 50 mM MOPS buffer containing 0.5 M NaCl. The solution was charged on a cilastatin affinity column. Elution with a 50 mM MOPS buffer containing 0.5 M NaCN gave a purified enzyme preparation.
(ii) Measurement of inhibitory activity
The resulting enzyme preparation (3 mU) and an inhibitor were pre-incubatedat 37° C. for 3 hours in 2.7 ml of a 50 mM MOPS buffer (pH 7.4), and then 2.475 ml of the mixture was transferred into a cuvette. As a substrate, 25 microliters of a 5 mM glycyldehydrophenylalanine solution in a 50 mM MOPS buffer (pH 7.4) was added to start an enzymic reaction. The reaction was carried out at 37° C. in a spectrophotometer fitted with a constant-emperature device, and a decrease of the absorbance at 275 nm during a period of 5 minutes was measured. […] An IC50 value was calculated from the percent inhibition data.
One unit (U) is defined as the amount of the enzyme which hydrolyzes 1 micromole of the substrate (glycyldehydrophenylalanine) per minute at a substrate concentration of 0.05 mM at 37° C. in a 50 mM MOPS buffer (pH 7.4).

Setting [3] is: iv 10 mg/kg (cilastatin dose not given).
The mark [4] stands for this setting: iv 10 mg/kg (cilastatin dose not given), N.D.: below the detection limit.
[5] abbreviates: substrate glycyldehydrophenylalanine, pH 7.4, 37° C., 3 h pre-incubation, read-out: Concentration producing 50% inhibition (IC50).

As for `CC(C)CP(=O)(O)C/C(=C\CCCC(=O)O)C(=O)O` [Compound No. 14, (Z)-2-(hydroxyisobutylphosphinoyl)methyl-2-heptenedioic acid], in data set [1] (setting [3]), the exposure (AUC) amounted to 9300 ng·h/mL, the concentration at 0.5 h stood at 4600 ng/mL, the concentration at 0.25 h amounted to 11300 ng/mL and the concentration at 5 min amounted to 28000 ng/mL. In data set [1] (setting [4]), this compound showed a concentration at 1 h of 1400 ng/mL. In addition, in data set [1] (iv 10 mg/kg), the concentration at 2 h came to 300 ng/mL and the concentration at 4 h worked out at 100 ng/mL. For the same compound, the IC50 in data set [2] (setting [5]) was found to be 11 nM.

With `CC(C)CP(=O)(O)C/C(=C\C1CC1)C(=O)O` [Compound No. 10, (Z)-3-cyclopropyl-2-(hydroxyisobutylphosphinoyl)methylpropenoic acid], in data set [1] (setting [3]), the AUC is 40600 ng·h/mL, the concentration at 0.5 h turned out to be 21700 ng/mL, the concentration at 0.25 h turned out to be 26500 ng/mL and the concentration at 5 min is 40800 ng/mL. For the same compound, in data set [1] (po 10 mg/kg), the AUC amounted to 3900 ng·h/mL, the concentration at 0.5 h is 1400 ng/mL, the concentration at 0.25 h amounted to 1100 ng/mL and the concentration at 5 min amounted to 500 ng/mL. In data set [1] (po 10 mg/kg), the concentration at 1 h is 1200 ng/mL, the concentration at 2 h amounted to 800 ng/mL, the concentration at 4 h was found to be 300 ng/mL and the concentration at 6 h came out at 200 ng/mL. The same compound had a concentration at 1 h in data set [1] (setting [4]) of 12800 ng/mL. In data set [1] (iv 10 mg/kg), this compound gave a concentration at 2 h of 5200 ng/mL and a concentration at 4 h of 1100 ng/mL. In data set [1] (iv 10 mg/kg, N.D.: below the detection limit), this compound came in with a concentration at 6 h of 200 ng/mL. In addition, in data set [1] (iv 10 mg/kg, 8 h), the concentration at 8 h came out at 200 ng/mL. Also, the IC50 in data set [2] (setting [5]) was 14 nM.

Take `CC(C)CP(=O)(O)C/C(=C\CCCSCCO)C(=O)O` [compound 31, (Z)-6-(2-hydroxyethyl)thio-2-(hydroxyisobutylphosphinoyl)methyl-2-hexenoic acid]: in data set [2] (setting [5]), the IC50 stood at 64 nM.

Turning to `CCCCP(=O)(O)C/C(=C\C1CCCCC1)C(=O)O` [Compound No. 1, (Z)-2-(butylhydroxyphosphinoyl)methyl-3-cyclohexylpropenoic acid], the IC50 in data set [2] (setting [5]) was 38 nM.

For the compound `CC(C)CP(=O)(O)C/C(=C\CCCCCSCC(=O)O)C(=O)O` [compound 20, (Z)-8-carboxymethylthio-2-(hydroxyisobutylphosphinoyl)methyl-2-octenoic acid], the IC50 in data set [2] (setting [5]) turned out to be 22 nM.

`CCCCP(=O)(O)CC(CC1CCCCC1)C(=O)O` (stereo not shown) [compound 26, 2-(butylhydroxyphosphinoyl)methyl-3-cyclohexylpropionic acid]: in data set [2] (setting [5]), the IC50 worked out at 28 nM.

As to `CCCCCCCCC/C=C(\CP(=O)(O)CC(C)C)C(=O)O` [compound 7, (Z)-2-(hydroxyisobutylphosphinoyl)methyl-2-dodecenoic acid], in data set [2] (setting [5]), the IC50 worked out at 27 nM.

As for `CC(C)/C=C(\CP(=O)(O)CC(C)C)C(=O)O` [compound 8, (Z)-2-(hydroxyisobutylphosphinoyl)methyl-4-methyl-2-pentenoic acid], the IC50 in data set [2] (setting [5]) is 16 nM.

For the compound `O=C(O)/C(=C/C1CC1)CP(=O)(O)CC1CCCCC1` [compound 16, (Z)-2-(cyclohexylmethylhydroxyphosphinoyl)methyl-3-cyclopropylpropenoic acid], the IC50 in data set [2] (setting [5]) stood at 41 nM.

For the compound `CC(C)CP(=O)(O)C/C(=C\CCCSc1c[nH]nn1)C(=O)O` [compound 19, (Z)-2-(hydroxyisobutylphosphinoyl)methyl-6-(1,2,3-triazol-4-yl)thio-2-hexenoic acid], the IC50 in data set [2] (setting [5]) turned out to be 25 nM.

Regarding `CC(C)CP(=O)(O)C/C(=C\c1ccccc1)C(=O)O` [compound 29, (Z)-2-(hydroxyisobutylphosphinoyl)methyl-3-phenylpropenoic acid], in data set [2] (setting [5]), the IC50 was found to be 60 nM.

Regarding `C/C=C(\CP(=O)(O)CC(C)C)C(=O)O` [compound 30, (Z)-2-(hydroxyisobutylphosphinoyl)methyl-2-butenoic acid], the IC50 in data set [2] worked out at 75 nM.

Regarding `CC1(C)CC1P(=O)(O)C/C(=C\C1CC1)C(=O)O` (stereo not shown) [compound 15, (Z)-3-cyclopropyl-2-(2,2-dimethylcyclopropylhydroxyphosphinoyl)methylpropenoic acid], the IC50 in data set [2] (setting [5]) is 6.3 nM.

Regarding `CC(C)C/C=C(\CP(=O)(O)CC(C)C)C(=O)O` [compound 9, (Z)-2-(hydroxyisobutylphosphinoyl)methyl-5-methyl-2-hexenoic acid], the IC50 in data set [2] (setting [5]) came to 15 nM.

Turning to `CC(C)CP(=O)(O)C/C(=C\CCCCCSc1ncccc1O)C(=O)O` [compound 25, (Z)-8-(3-hydroxy-2-pyridyl)thio-2-(hydroxyisobutylphosphinoyl)methyl-2-octenoic acid], the IC50 in data set [2] (setting [5]) came to 19 nM.

As to `CCCCC/C=C(\CP(=O)(O)CC(C)C)C(=O)O` [compound 6, (Z)-2-(hydroxyisobutylphosphinoyl)methyl-2-octenoic acid], the IC50 in data set [2] (setting [5]) was determined as 46 nM.

With `CC(C)CP(=O)(O)C/C(=C\CCc1ccccc1)C(=O)O` [compound 11, (Z)-2-(hydroxyisobutylphosphinoyl)methyl-5-phenyl-2-pentenoic acid], in data set [2] (setting [5]), the IC50 was determined as 57 nM.

As for `COC(=O)CSCCCCC/C=C(\CP(=O)(O)CC(C)C)C(=O)O` [compound 21, (Z)-2-(hydroxyisobutylphosphinoyl)methyl-8-methoxycarbonylmethylthio-2-octenoic acid], the IC50 in data set [2] (setting [5]) came out at 31 nM.

Take `CC(C)P(=O)(O)C/C(=C\C1CCCCC1)C(=O)O` [compound 3, (Z)-3-cyclohexyl-2-(hydroxyisopropylphosphinoyl)methylpropenoic acid]: the IC50 in data set [2] (setting [5]) came out at 42 nM.

As for `CC(C)CP(=O)(O)C/C(=C\CCCSc1ccccc1)C(=O)O` [compound 18, (Z)-2-(hydroxyisobutylphosphinoyl)methyl-6-phenylthio-2-hexenoic acid], the IC50 in data set [2] (setting [5]) was 21 nM.

`CC(C)CP(=O)(O)C/C(=C\CCCCCCl)C(=O)O` [compound 13, (Z)-8-chloro-2-(hydroxyisobutylphosphinoyl)methyl-2-octenoic acid]: the IC50 in data set [2] (setting [5]) was found to be 44 nM.

`CC(C)CP(=O)(O)C/C(=C\CCCSc1nccn1C)C(=O)O` [compound 24, (Z)-2-(hydroxyisobutylphosphinoyl)methyl-6-(1-methylimidazol-2-yl)thio-2-hexenoic acid]: in data set [2] (setting [5]), the IC50 was 48 nM.

As to `CCCCCCCCCCP(=O)(O)C/C(=C\C1CCCCC1)C(=O)O` [compound 4, (Z)-3-cyclohexyl-2-(decylhydroxyphosphinoyl)methylpropenoic acid], in data set [2] (setting [5]), the IC50 came out at 68 nM.

With `CC(C)CP(=O)(O)C/C(=C\CCCSc1ncccc1O)C(=O)O` [compound 22, (Z)-6-(3-hydroxy-2-pyridyl)thio-2-(hydroxyisobutylphosphinoyl)methyl-2-hexenoic acid], the IC50 in data set [2] (setting [5]) was 23 nM.

As to `CC(C)CP(=O)(O)C/C(=C\CCCCl)C(=O)O` [compound 12, (Z)-6-chloro-2-(hydroxyisobutylphosphinoyl)methyl-2-hexenoic acid], the IC50 in data set [2] (setting [5]) was 51 nM.

One may read the AUC as the area under the concentration-time curve, a measure of exposure. A high value points to high exposure.
